In US10226462B2, “Detection and treatment of excessive hair shedding” (Samson Clinical Pty Ltd, priority 2014, dated 2019):

Assays:
[1] = tested on: telogen effluvium; conditions: treatments commonly used for AGA; cited from earlier work
[2] = tested on: Monilethrix; assay: Oral minoxidil in two cases of monilethrix
Procedure: Patient 6: A person presented with lifelong fragile, sparse, and thin hair. […] Comorbidities included Crohn's disease and impaired hearing. Their child and two sons had also been diagnosed with monilethrix and suffered from sparse and fragile hair. […] As the application of topical minoxidil could potentially accentuate breakage of fragile hairs, treatment was commenced with oral minoxidil 0.25 mg daily.
Patient 7: A person with fragile, thin and sparse hair since childhood secondary to monilethrix presented for assessment and treatment. […] As the application of topical minoxidil could potentially accentuate breakage of fragile hairs oral Minoxidil 0.25 mg daily was commenced.

[3] = tested on: chronic telogen effluvium; assay: Once daily oral minoxidil in women with chronic telogen effluvium (CTE), hair shedding score and safety; conditions: for Mean HSS: 36 women, oral 0.5-2.5 mg daily, baseline 5.63; for Reduction in mean HSS: p<0.001
Procedure: The goals of this study were to review the use of oral minoxidil in CTE with respect to the response to hair shedding and safety. Hair shedding was assessed by patient self-reported Hair shedding Scores (HSS) using the visual analogue scale as described in Example 1 and FIG. 1. Hair Shedding Scores (HSS) were on the scale of 1 to 6 (6 being the highest level of hair shedding). Patients included in this study were women with a diagnosis of CTE based on >6 month history of increased telogen hair shedding, a HSS of 4-6, no visible mid frontal scalp hair loss (Sinclair stage 1) and no hair follicle miniaturization on scalp biopsy.
Data pertaining to dosage of oral minoxidil, previous treatments including topical minoxidil use, blood pressure, side effects, hypertrichosis and trichodynia were collected for each patient. Patient-reported responses were based on a visual analogue scale HSS at each consultation. The HSS prior to starting oral minoxidil, and scores at 6 and 12 months were extracted for analysis. Patients were treated with a once daily oral minoxidil (0.5 to 2.5 mg).
Data were analysed using Matlab R2014b statistical software. Hair shedding scores at baseline, 6 and 12 months were analysed using the Wilcoxon rank sum test for pair-wise comparisons. Differences in blood pressure at baseline and 6 months were also analysed using Wilcoxon rank sum test. Relationship between outcomes (HSS at six and 12 months) and individual patient specific variables including previous use of […], duration of disease, dosage and HSS at baseline were analysed using a generalised linear regression model.

[4] = tested on: bitemporal hair loss in female pattern hair loss; assay: Oral minoxidil 0.25 mg daily in women with bitemporal recession in female pattern hair loss; assay type: in vivo, human; conditions: for Hair shedding (HSS stage): baseline stage 6
[5] = tested on: androgenetic alopecia (male pattern hair loss); assay: Pilot open study of oral minoxidil 0.25 mg once daily for 24 weeks in men with AGA; assay type: in vivo, human; conditions: 0.25 mg daily
Procedure: This study was a pilot, prospective, open, observational study conducted at the Sinclair Dermatology Clinic in Melbourne, Australia. Participants were dosed for 24 weeks. Treatment naïve men with Hamilton Norwood staged III vertex, IV or V were treated for 24 weeks with minoxidil 0.25 mg once daily. The primary efficacy endpoint was investigators' photographic assessment at week 24 and adverse events. Investigator photographic assessment was conducted by a single investigator grading the photographs using a 3 point rating scale, ranging from “decreased hair growth” to “increased hair growth,” centred at no change. Any reports of adverse events were collected at every visit.

In the case of `CC(=O)S[C@@H]1CC2=CC(=O)CC[C@]2(C)[C@H]2CC[C@@]3(C)[C@@H](CC[C@@]34CCC(=O)O4)[C@H]12` [spironolactone], the “Efficacy in TE” value [1] is given as “do not work”.
In the case of `CC(C)(C)NC(=O)[C@H]1CC[C@H]2[C@@H]3CC[C@H]4NC(=O)C=C[C@]4(C)[C@H]3CC[C@]12C` [finasteride], the “Efficacy in TE” value [1] is listed as “do not work”.
For `CC(=O)O[C@]1(C(C)=O)CC[C@H]2[C@@H]3C=C(Cl)C4=CC(=O)[C@@H]5C[C@@H]5[C@]4(C)[C@H]3CC[C@@]21C` [cyproterone acetate], the “Efficacy in TE” value [1] is listed as “do not work”.
In the case of `Nc1cc(N2CCCCC2)nc(N)[n+]1[O-]` [minoxidil], the Side effects ([2]; Patient 6, oral 0.25 mg daily) is reported as “did not experience any side effects or complication”, the Tolerability ([2]; low doses, oral) is reported as “well tolerated” and the “Patients in whom the HSS improved” value ([3]; after 6 months, of 36) is reported as 31. The “Patients in whom the HSS remained the same” value ([3]; after 6 months, of 36) was 4, the “Mean HSS” value ([3]; at 6 months) was 3.9 and the “Mean HSS” value ([3]; at 12 months) was 3.05. For the same molecule, the “Patients in whom the HSS increased” value ([3]; at the 6-month mark, of 36) was 1, the “Patients improved from baseline” value ([3]; at the 12 month mark, of 36) was 33 and the “Reduction in mean HSS” value ([3]; baseline to 6 months) was 1.7. The “Reduction in mean HSS” value ([3]; baseline to 12 months) was 2.58, the “Mean reduction in HSS” value ([3]; between 6 months and 12 months, p=0.003) was 0.89 and the “Lowest blood pressure recorded” value ([3]; in vivo) was 90/70. The “Mean change in blood pressure, diastolic” value ([3]; in vivo) was “plus 2.1 mmHg”, the “Mean change in blood pressure, systolic” value ([3]; in vivo) was “minus 0.5 mmHg” and the “Mean dose in patient group with hypertrichosis (Yes)” value ([3]; in vivo) was 1.46 mg. For the same molecule, the “Mean dose in patient group with trichodynia (Yes)” value ([3]; in vivo) was 1.19 mg, the “Mean dose in patient group without hypertrichosis (No)” value ([3]; in vivo) was 0.99 mg and the “Mean dose in patient group without trichodynia (No)” value ([3]; in vivo) was 1.11 mg. For the same molecule, the “Patients who developed ankle oedema” value ([3]; of 36) was “One”, the “Patients who developed any blood test abnormalities” value ([3]; of 36) was “No patients” and the “Women who developed facial hypertrichosis” value ([3]; of 36) was “Thirteen”. For the same molecule, the “Patients who developed transient postural dizziness” value ([3]; of 36, resolved with continued treatment) was “Two”, the “Difference between blood pressure at baseline and 6 months” value ([3]; p>0.05) was “no significant differences” and the “Mean reduction in HSS” value ([3]; patients who had not used topical minoxidil, at 12 months) was 2.32. For the same molecule, the “Mean reduction in HSS” value ([3]; patients who had not used topical minoxidil, at six months) was 1.56, the “Mean reduction in HSS” value ([3]; patients who had previously used topical minoxidil, at 12 months) was 3.18 and the “Mean reduction in HSS” value ([3]; patients who had previously used topical minoxidil, at six months) was 2. For the same molecule, the Side-effects ([4]; Patient 8) was “no side-effects”, the “Hair shedding (HSS stage)” value ([4]; Patient 8, 0.25 mg, review at 3 months) was 5 and the Blood pressure ([4]; Patient 8, review at 3 months, baseline 110/70) was 115/65. For the same molecule, the Facial hypertrichosis ([4]; Patient 8, review at 3 months, present at baseline) was “unaltered”, the “Side effects or complications of treatment” value ([4]; Patient 9) was “not experienced any side effects or complications” and the “Hair shedding (HSS stage)” value ([4]; Patient 9, 0.25 mg once daily with continued spironolactone 100 mg daily, review at 6 weeks) was 4. For the same molecule, the Blood pressure ([4]; Patient 9, review at 6 weeks, baseline 140/85) was 125/85, the Tolerability ([5]; patients with MPHL) was “well tolerated” and the Adverse events ([5]; six men, 24 weeks) was “No adverse events”.
